Measurements reported in patent publication US20230382915A1, “GCN2 AND PERK KINASE INHIBITORS AND METHODS OF USE THEREOF” (Deciphera Pharmaceuticals, LLC, priority 2021, published 2023).

What was measured:
[1] = system: RPMI8226 Multiple Myeloma cells; assay: Cell proliferation, combination with standard of care, RPMI8226; format: cell-based; conditions: Homo sapiens, RPMI-8226; with 333 nM dexamethasone, 96 h, FIG. 6A; read-out: inhibition of cell proliferation IC50, combination treatment
Description: H929, RPMI8226, GA-10 and DoHH-2 cells (catalog #CRL-9068) were obtained from the American Type Culture Collection (ATTC, Manassas, VA). H929 Cells were maintained in RPMI-1640 medium supplemented with 20% heat-inactivated fetal bovine serum (catalog #A3840002, ThermoFisher Scientific, Waltham, MA), 1% Penicillin/Streptomycin/L-Glutamine (catalog #10378016, ThermoFisher Scientific, Waltham, MA), and 0.05 mM 2-mercaptoethanol (catalog #21985-023, ThermoFisher Scientific, Waltham, MA). […]
For cell proliferation assay appropriate number of cells (Forty thousand cells for H929. Twenty thousand cells for RPMI8226 and GA-10. Eight thousand cells for DoHH-2) were seeded per well in 200 μL in respective medium were dispensed into a 96-well black clear bottom plate. […] Plates were read on a Synergy2 or equivalent reader (Biotek, Winooski VT) using an excitation of 540 nm and an emission of 600 nm. At the end of the incubation of DoHH-2, cell viability was determined using CellTiter-Glo® assay (Promega, Madison, WI). Luminescence was measured using EnVision MultiLabel Reader (PerkinElmer, Waltham, MA). Data was analyzed using GraphPad Prism software (GraphPad, San Diego, CA) to calculate IC50 values.

[2] = system: ATF4 levels in CCRF-CEM leukemia xenograft; assay: CCRF-CEM xenograft PK/PD model; format: in vivo, mice; conditions: Mus musculus, po, in combination with ASNase, 2, 6, 10 h post dose, read-out: inhibition of ATF4 levels compared to vehicle control
Description: The CCRF-CEM xenograft model was performed in compliance with all the laws, regulations and guidelines of the National Institutes of Health (NIH) and with the approval of the Animal Care and Use Committee of Labcorp (Ann Arbor, MI), an AAALAC accredited facility. Food and water was provided ad libitum. […] Female Envigo C.B-17 SCID (6-7 weeks old) were inoculated subcutaneously just below the right high axilla with ten million cells in Dulbecco's Phosphate Buffered Saline, using a 27-gauge needle and syringe. When tumor burdens reached 200 mm 3 on average on day 22, mice were randomly assigned into groups such that the mean tumor burden for all groups was within 10% of the overall mean tumor burden for the study population. Groups were treated on days 23-24 as follows: on day 23 vehicle control (dosed orally and IP to mimic combination groups) (n=9); ASNase (Abcam, Cambridge, UK) dosed IP at 1000 U/kg/day (n=9). […] Protein concentrations were determined using BCA protein assay kit (Thermo Fisher Scientific, Waltham, MA). […] Samples were resolved using SDS-PAGE then analyzed using Western blot to quantify phospho-GCN2 (Thr899) (Abcam, Cambridge, UK), total GCN2, ATF4 and beta-Actin (Cell Signaling Technology, Danvers, MA). […] Data is analyzed using GraphPad Prism software (GraphPad, San Diego, CA) to calculate % inhibition.

[3] = system: HT-1080 fibrosarcoma xenograft; assay: HT-1080 xenograft efficacy model; format: in vivo, mice; conditions: 10 mg/kg BID, 14 days of dosing
Description: The HT-1080 xenograft model was performed in compliance with all the laws, regulations and guidelines of the National Institutes of Health (NIH) and with the approval of the Animal Care and Use Committee of Labcorp (Ann Arbor, MI), an AAALAC accredited facility. Food and water were provided ad libitum. […] Female nude mice (6-7 weeks old) were inoculated subcutaneously just below the right high axilla with two million cells in Dulbecco's Phosphate Buffered Saline, using a 27-gauge needle and syringe. When tumor burdens reached 100 mm 3 on average on day 6, mice were randomly assigned into groups such that the mean tumor burden for all groups was within 10% of the overall mean tumor burden for the study population. […] Tumor volume and body weight were measured three time per week. Tumor burden (mg) was estimated from caliper measurements by the formula: tumor burden (mg=mm 3)=(length×width 2)/2.

Work on `Cn1cc(-c2cccc(NS(=O)(=O)c3cc(Cl)cc(CO)c3Cl)c2F)c2c(N)ncnc21` [Example 2, N-(3-(4-amino-7-methyl-7H-pyrrolo[2,3-d]pyrimidin-5-yl)-2-fluorophenyl)-2,5-dichloro-3-(hydroxymethyl)benzenesulfonamide] yielded an IC50 [1] of 7 nM, an inhibition at 25 mg/kg ([2]; 25 mg/kg orally) of 57 to 93% and an inhibition at 50 mg/kg ([2]; 50 mg/kg orally) of 87 to 91%. For the same molecule, the “mean tumor growth inhibition” value [3] was 50%.
